{"source": "ChEMBL document CHEMBL1145721", "about": "“The secalosides, novel tumor cell growth inhibitory glycosides from a pollen extract” (J Nat Prod, 1997)", "key": {"CCRF S-180 [1]": {"tested_on": "CCRF S-180", "assay": "In vivo antitumor activity against mouse S180 cells implanted in mouse assessed as cell growth at 2.5 ug/mouse for 10 days relative to control", "assay_type": "functional"}, "CCRF S-180 [2]": {"tested_on": "CCRF S-180", "assay": "In vivo antitumor activity against mouse S180 cells implanted in mouse after 10 days", "assay_type": "functional, organism-based"}, "CCRF S-180 [3]": {"tested_on": "CCRF S-180", "assay": "In vivo antitumor activity against mouse S180 cells implanted in mouse assessed as cell growth at 1.25 ug/mouse for 10 days relative to control", "assay_type": "functional"}, "CCRF S-180 [4]": {"tested_on": "CCRF S-180", "assay": "In vivo antitumor activity against mouse S180 cells implanted in mouse assessed as cell growth at 10 ug/mouse for 10 days relative to control", "assay_type": "functional"}, "CCRF S-180 [5]": {"tested_on": "CCRF S-180", "assay": "In vivo antitumor activity against mouse S180 cells implanted in mouse assessed as cell growth at 20 ug/mouse for 10 days relative to control", "assay_type": "functional"}, "CCRF S-180 [6]": {"tested_on": "CCRF S-180", "assay": "In vivo antitumor activity against mouse S180 cells implanted in mouse assessed as cell growth at 0.625 ug/mouse for 10 days relative to control", "assay_type": "functional"}, "CCRF S-180 [7]": {"tested_on": "CCRF S-180", "assay": "In vivo antitumor activity against mouse S180 cells implanted in mouse assessed as cell growth at 5 ug/mouse for 10 days relative to control", "assay_type": "functional"}, "L1210": {"tested_on": "L1210", "assay": "Cytotoxicity against mouse L1210 cells", "assay_type": "functional, cell-based"}, "CCRF S-180 [8]": {"tested_on": "CCRF S-180", "assay": "In vivo antitumor activity against mouse S180 cells implanted in mouse assessed as cell growth at 60 ug/mouse for 10 days relative to control", "assay_type": "functional"}, "CCRF S-180 [9]": {"tested_on": "CCRF S-180", "assay": "In vivo antitumor activity against mouse S180 cells implanted in mouse assessed as cell growth at 40 ug/mouse for 10 days relative to control", "assay_type": "functional"}, "CCRF S-180 [10]": {"tested_on": "CCRF S-180", "assay": "Antitumor activity against mouse S180 cells implanted in mouse in presence of cyclophosphamide administered 24 hrs prior to implantation", "assay_type": "functional, cell-based"}, "KB": {"tested_on": "KB", "assay": "Cytotoxicity against human KB cells", "assay_type": "functional, cell-based"}, "CCRF S-180 [11]": {"tested_on": "CCRF S-180", "assay": "Cytotoxicity against mouse S180 cells", "assay_type": "functional, cell-based"}}, "note": "Calls of active or inactive are those of the source. The calls are words filed in the database; no cut-off is given here."}
{"compound": "O=C(O)CC1C(=O)Nc2ccccc21", "note": "(stereo not given)", "values": [{"measurement": "T/C", "setting": "CCRF S-180 [1]", "value": 0, "unit": "%"}, {"measurement": "IC50", "setting": "CCRF S-180 [2]", "value": "<= 1 ug"}, {"measurement": "T/C", "setting": "CCRF S-180 [3]", "value": 16, "unit": "%"}, {"measurement": "T/C", "setting": "CCRF S-180 [4]", "value": 0, "unit": "%"}, {"measurement": "T/C", "setting": "CCRF S-180 [5]", "value": 0, "unit": "%"}, {"measurement": "T/C", "setting": "CCRF S-180 [6]", "value": 36, "unit": "%"}, {"measurement": "T/C", "setting": "CCRF S-180 [7]", "value": 0, "unit": "%"}]}
{"compound": "O=C1CC(C(=O)O)c2ccccc2N1", "note": "(racemic)", "values": [{"measurement": "T/C", "setting": "CCRF S-180 [1]", "value": 0, "unit": "%"}, {"measurement": "IC50", "setting": "CCRF S-180 [2]", "value": "<= 1 ug"}, {"measurement": "T/C", "setting": "CCRF S-180 [3]", "value": 30, "unit": "%"}, {"measurement": "T/C", "setting": "CCRF S-180 [4]", "value": 0, "unit": "%"}, {"measurement": "T/C", "setting": "CCRF S-180 [5]", "value": 0, "unit": "%"}, {"measurement": "T/C", "setting": "CCRF S-180 [6]", "value": 62, "unit": "%"}, {"measurement": "T/C", "setting": "CCRF S-180 [7]", "value": 0, "unit": "%"}]}
{"compound": "COc1cc(C2c3cc(O[C@@H]4O[C@H](COC(=O)CC5C(=O)Nc6ccccc65)[C@@H](O)[C@H](O)[C@H]4O)c(O)cc3C3C(=O)O[C@H]4[C@H](O)[C@@H](COC(=O)C32)O[C@@]4(CO)O[C@H]2O[C@H](CO)[C@@H](O)[C@H](O)[C@H]2O)ccc1O", "note": "(stereo not given in full) [SECALOSDIE A/B]", "values": [{"measurement": "T/C", "setting": "CCRF S-180 [1]", "value": 70, "unit": "%"}, {"measurement": "IC50", "setting": "CCRF S-180 [2]", "value": 5, "unit": "µg"}, {"measurement": "Activity", "setting": "L1210", "value": "inactive"}, {"measurement": "T/C", "setting": "CCRF S-180 [8]", "value": 0, "unit": "%"}, {"measurement": "T/C", "setting": "CCRF S-180 [9]", "value": 2, "unit": "%"}, {"measurement": "T/C", "setting": "CCRF S-180 [4]", "value": 24, "unit": "%"}, {"measurement": "T/C", "setting": "CCRF S-180 [5]", "value": 17, "unit": "%"}, {"measurement": "Activity", "setting": "CCRF S-180 [10]", "value": "inactive"}, {"measurement": "Activity", "setting": "KB", "value": "inactive"}, {"measurement": "Activity", "setting": "CCRF S-180 [11]", "value": "inactive"}, {"measurement": "T/C", "setting": "CCRF S-180 [7]", "value": 45, "unit": "%"}]}
